The subject of one test is COVID-19. The note with it: patients with confirmed COVID-19; FVP orally 1600 mg twice a day on day 1, 600 mg twice a day days 2-14, plus interferon-α aerosol 5 million units twice a day; control lopinavir/ritanovir 400 mg/100 mg twice a day; cited from earlier work.
The next test concerns SARS-CoV-2. The class given is in vivo.

For 1 compound, viral clearance and virus elimination rate results are on record in patent publication US20230158020A1, “Method for treating RNA viral infections, including COVID-19 (SARS-CoV-2)” (priority 2020, published 2023).

Structures are written as SMILES. Read-outs that look alike come from different tables or passages of the source.

Regarding `NC(=O)c1nc(F)c[nH]c1=O` [FVP, Favipiravir], the viral clearance in the test on COVID-19 is 4 days. Also, the figures for the virus elimination rate in the test with SARS-CoV-2 (patients with FVP dose <43 mg/kg on day 1) and in the test with SARS-CoV-2 (patients with FVP dose ≥43 mg/kg on day 1) were 44% and 79%, respectively.
